Results on ten molecules are retold here after US6500853B1, “Inhibitors of phospholipase enzymes” (Genetics Institute, LLC, priority 1998, dated 2002).

A word on the inhibition: it is the share of the control response that was lost under treatment.

Where “and” joins values, the source holds several entries; their conditions need not be identical. Equal entries are not always repeated. Where two headings read alike, the source gives them in different places.

One test has as its target T1, cPLA2 (Homo sapiens, UniProt P47712).
T1 sequence (P47712 1-749): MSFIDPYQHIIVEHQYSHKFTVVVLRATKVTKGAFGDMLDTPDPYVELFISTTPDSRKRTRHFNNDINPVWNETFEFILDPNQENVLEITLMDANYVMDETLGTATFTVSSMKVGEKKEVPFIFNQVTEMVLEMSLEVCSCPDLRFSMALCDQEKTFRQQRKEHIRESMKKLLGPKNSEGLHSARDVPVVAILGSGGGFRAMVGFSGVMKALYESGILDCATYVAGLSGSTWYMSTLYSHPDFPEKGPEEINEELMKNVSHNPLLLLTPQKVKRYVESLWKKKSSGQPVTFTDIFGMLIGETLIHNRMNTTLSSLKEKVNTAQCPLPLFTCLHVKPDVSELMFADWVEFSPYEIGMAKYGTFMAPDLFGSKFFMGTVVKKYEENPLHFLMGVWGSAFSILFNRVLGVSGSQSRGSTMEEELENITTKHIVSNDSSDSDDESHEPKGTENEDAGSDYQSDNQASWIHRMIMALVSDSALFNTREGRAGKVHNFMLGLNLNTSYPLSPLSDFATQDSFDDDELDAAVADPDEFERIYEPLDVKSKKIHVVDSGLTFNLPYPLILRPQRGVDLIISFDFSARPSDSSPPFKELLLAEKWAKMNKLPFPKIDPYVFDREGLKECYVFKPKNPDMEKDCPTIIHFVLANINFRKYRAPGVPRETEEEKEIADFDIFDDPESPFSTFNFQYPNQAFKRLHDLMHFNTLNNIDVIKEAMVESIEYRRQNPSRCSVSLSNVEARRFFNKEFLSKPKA
The test is described as follows: Coumarin Assay (cPLA2 inhibition). The test is classed as biochemical. As to conditions: for inhibition at 100 µM: CONCENTRATION 100 micromolar; for inhibition at 6.4 µM: CONCENTRATION 6.4 micromolar. A digest of the protocol: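 Percent inhibition at the stated concentration, from the rate of 460 nm emission rise (360 nm excitation) per minute. Reaction started by adding 4 μg enzyme to compound and 60 μM 7-hydroxycoumarinyl 6-heptenoate in Hepes buffer pH 7.5 with 1 mM EDTA.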

For test [1], the system named is Rat Carrageenan-Induced Footpad Edema. The test is described as follows: Rat Carrageenan-Induced Footpad Edema Test. The settings on record: footpad volume 3 hours after carrageenan. It is filed as in vivo, male Sprague Dawley rats. On the technique in general: The carrageenan paw model is a standard test of acute inflammation.
Setting [2] is: Rattus norvegicus, iv, 3 h, IV, 5 mg/Kg, read-out: PERCENT INHIBITION
Where [3] appears, read: Rattus norvegicus, po, 3 h, PO, read-out: PERCENT INHIBITION
Setting [4] is: CONCENTRATION 6.25 micromolar, read-out: PERCENT INHIBITION @.

As to “4-({5-[(cyclopentylcarbonyl)amino]-1-[phenyl(2-pyridinyl)methyl]-1H-indol-3-yl}methyl)-3-methoxybenzoic acid [Example 44]”, the “PERCENT INHIBITION @” value on cPLA2 (CONCENTRATION 1.65 micromolar) worked out at 50%; at cPLA2 (CONCENTRATION 1.7 micromolar), 50%; on cPLA2 (CONCENTRATION 1.75 micromolar) it was 50%; at cPLA2 (CONCENTRATION 1.9 micromolar) it was 50%; on cPLA2 (CONCENTRATION 2.1 micromolar) it was 50%; at cPLA2 (CONCENTRATION 2.5 micromolar), 71%. The “PERCENT INHIBITION @” value on cPLA2 (CONCENTRATION 6.25 micromolar) is 97%. For the same molecule, the “PERCENT INHIBITION” value in test [1] (IV, 5 mg/Kg) was 11.9%.

For the molecule `O=C(O)CC1C(=O)NCCN1Cc1cn(C(c2ccccc2)c2ccccc2)c2ccc(NC(=O)C3CCCC3)cc12` (stereo not drawn) [Example 67, 2-[1-({1-benzhydryl-5-[(cyclopentylcarbonyl)amino]-1H-indol-3-yl}methyl)-3-oxo-2-piperazinyl]acetic acid], the inhibition at 100 µM at cPLA2 (read-out: PERCENT INHIBITION @) came out at 8%. Besides, the inhibition at 400 µM at cPLA2 (CONCENTRATION 400 micromolar, read-out: PERCENT INHIBITION @) was determined as 31%. Further, in test [1] (setting [2]), the inhibition in vivo at 5 mg/kg is 10.8%.

As to `COc1cc(C(=O)NS(=O)(=O)C(F)(F)F)ccc1Cc1cn(C(c2ccccc2)c2ccccc2)c2ccc(NC(=O)c3ccsc3)cc12` [Example 46, N-{1-benzhydryl-3-[2-methoxy-4-({[(trifluoromethyl)sulfonyl]amino}carbonyl)benzyl]-1H-indol-5-yl}-3-thiophenecarboxamide], the inhibition at 2.2 µM on cPLA2 (CONCENTRATION 2.2 micromolar, read-out: PERCENT INHIBITION @) was determined as 50%. For the same molecule, the inhibition at 2.5 µM on cPLA2 (CONCENTRATION 2.5 micromolar, read-out: PERCENT INHIBITION @) amounted to 67%. Besides, at cPLA2 (CONCENTRATION 2.7 micromolar, read-out: PERCENT INHIBITION @), the inhibition at 2.7 µM is 50%. Also, the inhibition at 3.5 µM at cPLA2 (CONCENTRATION 3.5 micromolar, read-out: PERCENT INHIBITION @) came to 50%. Further, on cPLA2 (CONCENTRATION 4.5 micromolar, read-out: PERCENT INHIBITION @), the inhibition at 4.5 µM is 50%. Besides, the inhibition in vivo at 5 mg/kg in test [1] (setting [2]) is 4.58%.

For `COc1cc(C(=O)O)ccc1Cc1cn(C(c2ccccc2)c2ccccc2)c2ccc(NS(=O)(=O)c3ccc(OC(F)(F)F)cc3)cc12` [Example 93, 4-{[1-benzhydryl-5-({[4-(trifluoromethoxy)phenyl]sulfonyl}amino)-1H-indol-3-yl]methyl}-3-methoxybenzoic acid], at cPLA2 (CONCENTRATION 4.2 micromolar, read-out: PERCENT INHIBITION @), the inhibition at 4.2 µM was found to be 50%. Also, the inhibition at 4.9 µM on cPLA2 (CONCENTRATION 4.9 micromolar, read-out: PERCENT INHIBITION @) was found to be 50%. In test [1] (setting [3]), the inhibition in vivo at 2 mg/kg is -3.02% and the inhibition in vivo at 10 mg/kg was 9.91%.

Regarding `O=C(O)CCc1cn(C(c2ccccc2)c2ccccc2)c2ccc(NC(=O)C3CCCC3)cc12` [Example 84, 3-{1-benzhydryl-5-[(cyclopentylcarbonyl)amino]-1H-indol-3-yl}propanoic acid], the inhibition at 100 µM on cPLA2 (read-out: PERCENT INHIBITION @) was 22%. Also, the inhibition at 265 µM on cPLA2 (CONCENTRATION 265 micromolar, read-out: PERCENT INHIBITION @) was determined as 50%. Moreover, the inhibition at 350 µM at cPLA2 (CONCENTRATION 350 micromolar, read-out: PERCENT INHIBITION @) turned out to be 50%. Besides, in test [1] (setting [2]), the inhibition in vivo at 5 mg/kg was determined as 6.15%.

As to `COc1cc(C(=O)O)ccc1Cc1cn(C(c2ccccc2)c2ccccc2)c2cc3c(cc12)OCO3` [Example 16, 4-[(5-benzhydryl-5H-[1,3]dioxolo[4,5-f]indol-7-yl)methyl]-3-methoxybenzoic acid], the “PERCENT INHIBITION @” value at cPLA2 (CONCENTRATION 0.125 micromolar) was 61% and 71%. Besides, at cPLA2 (CONCENTRATION 0.14 micromolar, read-out: PERCENT INHIBITION @), the inhibition at 0.14 µM turned out to be 50%. Also, the inhibition at 0.17 µM on cPLA2 (CONCENTRATION 0.17 micromolar, read-out: PERCENT INHIBITION @) was 50%. Also, the inhibition at 0.25 µM at cPLA2 (CONCENTRATION 0.25 micromolar, read-out: PERCENT INHIBITION @) was 69%. Besides, the inhibition at 6.25 µM on cPLA2 (setting [4]) turned out to be 98%. In test [1] (setting [3]), the inhibition in vivo at 2 mg/kg came out at 3.8% and the inhibition in vivo at 10 mg/kg was 15%.

For the molecule `COc1cc(C(=O)NS(C)(=O)=O)ccc1Cc1cn(C(c2ccccc2)c2ccccc2)c2ccc(NC(=O)OC3CCCC3)cc12` [Example 27, cyclopentyl N-[1-benzhydryl-3-(2-methoxy-4-{[(methylsulfonyl)amino]carbonyl}benzyl)-1H-indol-5-yl]carbamate], the inhibition at 6 µM on cPLA2 (CONCENTRATION 6 micromolar, read-out: PERCENT INHIBITION @) worked out at 50%. In addition, the inhibition at 6.4 µM on cPLA2 (read-out: PERCENT INHIBITION @) is 50%. The inhibition in vivo at 5 mg/kg in test [1] (setting [2]) was found to be 6.48%.

With `COc1cc(C(=O)O)ccc1Cc1cn(C(c2ccccc2)c2ccccc2)c2ccc(NC(=O)OC3CCCC3)cc12` [Example 3, 4-[(1-benzhydryl-5-{[(cyclopentyloxy)carbonyl]amino}1H-indol-3-yl)methyl]-3-methoxybenzoic acid], the inhibition at 5 µM on cPLA2 (CONCENTRATION 5 micromolar, read-out: PERCENT INHIBITION @) worked out at 50%. For the same molecule, the inhibition at 6.25 µM at cPLA2 (setting [4]) is 51%. Also, at cPLA2 (read-out: PERCENT INHIBITION @), the inhibition at 6.4 µM amounted to 50% and the inhibition at 100 µM was 39%. Moreover, on cPLA2 (CONCENTRATION 10 micromolar, read-out: PERCENT INHIBITION @), the inhibition at 10 µM was 41%. For the same molecule, at cPLA2 (CONCENTRATION 17.5 micromolar, read-out: PERCENT INHIBITION @), the inhibition at 17.5 µM came to 50%. Besides, the inhibition at 19 µM at cPLA2 (CONCENTRATION 19 micromolar, read-out: PERCENT INHIBITION @) amounted to 50%. Besides, the “PERCENT INHIBITION @” value on cPLA2 (CONCENTRATION 20 micromolar) was 38% and 43% and 44%. Moreover, the inhibition at 20 µM on cPLA2 (CONCENTRATION 20 micromolar, read-out: PERCENT INHIBITION @) was 37%. Moreover, the inhibition at 22 µM at cPLA2 (CONCENTRATION 22 micromolar, read-out: PERCENT INHIBITION @) came to 50%. Also, the inhibition at 23 µM on cPLA2 (CONCENTRATION 23 micromolar, read-out: PERCENT INHIBITION @) turned out to be 50%. Further, the inhibition at 23.5 µM on cPLA2 (CONCENTRATION 23.5 micromolar, read-out: PERCENT INHIBITION @) came to 50%. Further, at cPLA2 (CONCENTRATION 24 micromolar, read-out: PERCENT INHIBITION @), the inhibition at 24 µM was 50%. Further, the inhibition in vivo at 5 mg/kg in test [1] (Rattus norvegicus, po, 3 h, PO, 5 mg/Kg, read-out: PERCENT INHIBITION) stood at 21.5%. For the same molecule, the inhibition in vivo at 20 mg/kg in test [1] (Rattus norvegicus, po, 3 h, PO-, 20 mg/Kg, read-out: PERCENT INHIBITION) worked out at 19.6%.

For the molecule `COc1cc(C(=O)O)ccc1Cc1cn(C(c2ccccc2)c2ccccc2)c2ccc(NS(=O)(=O)c3ccc(C(F)(F)F)cc3)cc12` [Example 89, 4-{[1-benzhydryl-5-({[4-(trifluoromethyl)phenyl]sulfonyl}amino)-1H-indol-3-yl]methyl}-3-methoxybenzoic acid], the inhibition at 4.4 µM at cPLA2 (CONCENTRATION 4.4 micromolar, read-out: PERCENT INHIBITION @) turned out to be 50%. The inhibition at 4.8 µM at cPLA2 (CONCENTRATION 4.8 micromolar, read-out: PERCENT INHIBITION @) stood at 50%. Besides, in test [1] (setting [3]), the inhibition in vivo at 2 mg/kg was 14.3% and the inhibition in vivo at 10 mg/kg worked out at 16.4%.

For `COc1cc(C(=O)O)ccc1Cc1cn(C2CCCC2)c2ccc(NC(=O)OC3CCCC3)cc12` [Example 8, 4-[(1-cyclopentyl-5-{[(cyclopentyloxy)carbonyl]amino}-1H-indol-3-yl)methyl]-3-methoxybenzoicacid], at cPLA2 (CONCENTRATION 65 micromolar, read-out: PERCENT INHIBITION @), the inhibition at 65 µM came out at 50%. In addition, the inhibition at 100 µM on cPLA2 (read-out: PERCENT INHIBITION @) turned out to be 44%. Further, the inhibition in vivo at 5 mg/kg in test [1] (setting [2]) was -5.7%.
